In test [1] the target is Erk2 (Homo sapiens, UniProt P28482). Nature of the test: Cell-free kinase assay (ALPHA technology), Erk2. The format is biochemical. To be noted: 10 μM ATP. The method in brief:
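Recombinant tagged Erk2 kinase reactions were stopped with ALPHA bead mix […]. The signal was read after standing overnight. Controls were run in eight replicates and compounds in duplicate, and IC50 was fitted.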

Test [2] concerns Hct116. Kind of test: XTT assay, anti-proliferative effect, Hct116. Type of test: cell-based. As to conditions: Homo sapiens, HCT-116; 45 h incubation. The method, then: (§1) The principle of this test is based on the intracellular reduction of the tetrazolium dye XTT (sodium 3′-[1-(phenylaminocarbonyl)-3,4-tetrazolium]-bis(4-methoxy-6-nitro)benzene sulfonic acid, Sigma) to a formazan dye by mitochondrial dehydrogenases. The dye is only formed by metabolically active cells and its photometrically measurable intensity is a quantitative indicator for the presence of living cells. The reduction of dye formation by incubation of the cells with substances serves as a parameter for the anti-proliferative effect.
(§2) The tumour cell lines (ATCC) were injected into 96-well microtitre plates in a defined cell number (5000 cells/well for BxPC3 and Hct116; 10000 cells/well for MDA MB468) and then incubated overnight in an incubator at 37° C., 5% CO2 and 95% air humidity. The test substances were prepared as stock solutions (10 mM) in DMSO. […] The cell plates were then incubated for 45 h in an incubator at 37° C., 5% CO2 and 95% air humidity.
(§3) For the detection reaction the substrate XTT was mixed with PMS (N-Methyl dibenzopyrazine methylsulfate, Sigma) and added to the cells so that a final concentration of 325 μg XTT/ml and 2.5 μg PMS/ml was obtained. It was then incubated for 3 h at 37° C., 95% air humidity. The formazan salt formed by the cellular dehydrogenases could then be quantified by adsorption at 490 nm.
(§4) The % inhibition value was evaluated by means of the following formula from the values for the optical densities measured in each case at 490 nm:
(§5) Eight determinations were made for each control and two for the substance samples. The 0% control contains no cells, the 100% control (proliferation control) contains no test substance. The EC50 values were determined using GraphPadPrism.
In general terms: Tetrazolium assays rely on reduction of a dye to a coloured formazan, in cell work by metabolically active cells.

Test [3] has as its system MDA-MB468. Kind of test: XTT assay, anti-proliferative effect, MDA-MB468. Type of test: cell-based. To be noted: Homo sapiens, MDA-MB-468; 45 h incubation. As for the experimental part: as §1, §2, §3, §4, §5
The target in test [4] is PI3Kalpha (Homo sapiens (Human), UniProt P42336). Nature of the test: Cell-free kinase assay (ALPHA technology), PI3Kalpha. To be noted: 100 μM ATP. The format is biochemical. The method, boiled down: (§6)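 Recombinant human GST- or His-tagged kinases were assayed for 1 h with ALPHA bead detection read after overnight standing. For PI3Kalpha: 1 ng enzyme, 100 μM ATP, 20 μM PIP2 in Hepes pH 7.4, detected by GST:Grp1/biotin-PIP3 competition. The p38alpha and Jnk assays followed the MAPK format (10 μM ATP, biotin-MBP, anti-phospho-MBP); IC50 from %-inhibition.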
PI3Kalpha, sequence (P42336 whole entry): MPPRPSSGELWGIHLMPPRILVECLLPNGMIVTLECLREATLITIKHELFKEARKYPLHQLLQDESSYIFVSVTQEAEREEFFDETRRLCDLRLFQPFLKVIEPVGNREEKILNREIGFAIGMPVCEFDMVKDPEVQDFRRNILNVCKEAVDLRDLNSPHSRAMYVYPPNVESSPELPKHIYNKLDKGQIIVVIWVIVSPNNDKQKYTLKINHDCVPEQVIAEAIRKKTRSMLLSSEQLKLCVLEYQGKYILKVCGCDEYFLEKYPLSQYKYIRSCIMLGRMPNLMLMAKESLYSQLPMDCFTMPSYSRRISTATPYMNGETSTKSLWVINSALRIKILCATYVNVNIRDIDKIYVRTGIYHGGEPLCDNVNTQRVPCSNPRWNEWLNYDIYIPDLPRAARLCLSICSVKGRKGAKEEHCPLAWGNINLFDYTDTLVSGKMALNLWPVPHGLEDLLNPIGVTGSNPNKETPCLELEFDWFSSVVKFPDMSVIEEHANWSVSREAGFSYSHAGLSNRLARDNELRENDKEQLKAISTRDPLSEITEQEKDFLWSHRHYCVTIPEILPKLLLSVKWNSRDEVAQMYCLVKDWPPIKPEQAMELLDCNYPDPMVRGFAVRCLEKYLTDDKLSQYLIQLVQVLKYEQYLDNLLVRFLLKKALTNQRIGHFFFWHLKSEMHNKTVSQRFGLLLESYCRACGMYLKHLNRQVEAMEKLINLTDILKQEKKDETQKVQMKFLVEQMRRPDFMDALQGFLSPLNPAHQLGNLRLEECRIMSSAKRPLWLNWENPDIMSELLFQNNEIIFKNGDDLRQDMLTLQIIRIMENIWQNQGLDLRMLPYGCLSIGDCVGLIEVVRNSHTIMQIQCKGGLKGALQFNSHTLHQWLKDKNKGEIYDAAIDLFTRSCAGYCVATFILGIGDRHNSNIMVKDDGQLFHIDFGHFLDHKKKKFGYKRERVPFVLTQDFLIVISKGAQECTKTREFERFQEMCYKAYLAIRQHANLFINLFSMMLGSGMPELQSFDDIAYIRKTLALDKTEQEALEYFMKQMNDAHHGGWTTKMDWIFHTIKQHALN
PI3Kalpha, sequence (P27986 whole entry partner): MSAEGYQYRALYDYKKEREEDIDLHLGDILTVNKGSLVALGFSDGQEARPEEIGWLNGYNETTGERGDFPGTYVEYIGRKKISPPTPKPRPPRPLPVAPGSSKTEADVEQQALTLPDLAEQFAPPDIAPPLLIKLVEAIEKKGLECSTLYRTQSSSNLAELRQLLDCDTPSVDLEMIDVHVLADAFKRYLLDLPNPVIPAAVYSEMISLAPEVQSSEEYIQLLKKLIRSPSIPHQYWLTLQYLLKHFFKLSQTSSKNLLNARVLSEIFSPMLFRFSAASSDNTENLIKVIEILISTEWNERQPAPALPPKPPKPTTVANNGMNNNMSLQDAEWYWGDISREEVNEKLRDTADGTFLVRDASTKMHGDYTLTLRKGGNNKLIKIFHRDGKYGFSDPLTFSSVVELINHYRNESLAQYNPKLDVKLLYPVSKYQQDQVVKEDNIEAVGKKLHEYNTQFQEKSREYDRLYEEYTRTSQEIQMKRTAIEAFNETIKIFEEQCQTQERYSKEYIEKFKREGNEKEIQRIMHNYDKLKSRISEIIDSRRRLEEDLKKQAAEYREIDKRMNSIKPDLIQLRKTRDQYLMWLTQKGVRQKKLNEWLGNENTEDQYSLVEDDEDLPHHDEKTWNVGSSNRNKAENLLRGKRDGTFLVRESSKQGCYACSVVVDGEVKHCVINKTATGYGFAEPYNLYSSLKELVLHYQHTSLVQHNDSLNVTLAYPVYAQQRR

Test [5] relates to BxPC3. Kind of test: XTT assay, anti-proliferative effect, BxPC3. Type of test: cell-based. To be noted: Homo sapiens, BXPC-3; 45 h incubation. The method, then:
as §1, §2, §3, §4, §5

Test [6] has as its system Jnk1 + Jnk2. Nature of the test: Cell-free kinase assay (ALPHA technology), Jnk1 + Jnk2. As to conditions: 10 μM ATP. Type of test: biochemical, human. The method, boiled down: as §6
Test [7] concerns the target p38alpha (Homo sapiens (Human), UniProt Q16539). Kind of test: Cell-free kinase assay (ALPHA technology), p38alpha. To be noted: 10 μM ATP. The format is biochemical.
The subject of test [8] is tumour cell lines (BxPC3, Hct116, MDA MB468). Kind of test: XTT assay, anti-proliferative effect on the cell lines used. As to conditions: compared to the Exemplary Embodiments. Type of test: cell-based. The method, then: as §1
The tumour cell lines (ATCC) were injected into 96-well microtitre plates in a defined cell number (5000 cells/well for BxPC3 and Hct116; 10000 cells/well for MDA MB468) and then incubated overnight in an incubator at 37° C., 5% CO2 and 95% air humidity. […]
For the detection reaction the substrate XTT was mixed with PMS (N-Methyl dibenzopyrazine methylsulfate, Sigma) and added to the cells so that a final concentration of 325 μg XTT/ml and 2.5 μg PMS/ml was obtained. […] The formazan salt formed by the cellular dehydrogenases could then be quantified by adsorption at 490 nm.
as §4
Eight determinations were made for each control and two for the substance samples. […] The EC50 values were determined using GraphPadPrism.

Test [9] concerns Erk → pRsk. Kind of test: Cellular substrate phosphorylation (Western Blotting), Erk substrate pRsk. The format is cell-based. The method, then: (§7) This method can be used to predict whether the kinase modulator under study also achieves the desired effect in a cellular context, i.e. in this case, a substrate protein downstream of the target kinase is investigated for its phosphorylation status. For this purpose, the cells incubated with substance are lysed and the total protein separated on a reducing polyacrylamide gel. The proteins are then transferred to a PVDF membrane by means of Western Blotting and the substrate bands sought are made visible with specific antibodies and a suitable detection method. The substrate proteins downstream of the target kinases are detected simultaneously with a respectively special anti-phospho-antibody and at the same time a total antibody which recognizes the substrate total protein. This simultaneous measurement can be made using the duplex technology of the ODYSSEY imagers (LiCOR). The intensity of the total substrate bands is used for normalising or quantifying the phosphorylation inhibition or activation.
(§8) Suitable tumour cell lines (e.g. BxPC3, Hct116 or MDA MB468) were injected into six-well microtitre plates in a defined cell number (e.g. 350 000 cells/well for BxPC3 and Hct116) in the respective standard complete medium and then incubated overnight at 37° C., 5% CO2 and 95% air humidity. The cells were then incubated for a further 24 h under serum-reduced conditions i.e. in the respective medium but with only 0.25% serum. The test substances were prepared as stock solutions (10 mM) in DMSO and incubated with the cells in final concentrations of 5, 15.8 and 50 μM for 5 h. This was followed by cell lysis in 25 mM Tris, 150 mM NaCl, 10 mM Na-pyrophosphate, 2 mM EGTA, 25 mM β-glycerophosphate, 25 mM NaF, 10% glycerine, 0.75% NP-40, 100 μM NaVO4 buffer. Following protein quantification by means of BCA (bicinchonic acid protein assay kit, Sigma) Assay, protein quantities of about 20 μg per track were separated on a Lämmli polyacrylamide gel and then transferred to a PVDF membrane (Millipore) by means of Semi-Dry Western-Blotting at 0.8 mA/cm^2 for 1 h. This was followed by pre-hybridisation of the membrane for 1 hour in I-block reagent (Applied Biosystems) and incubation overnight with the specific antibodies. To determine the Erk and PI3K inhibition, the respectively downstream substrates Rsk1 were detected with the total antibody (Rsk #sc-231g C-21, Santa Cruz) and the phospho-antibody (Phospho-p90RSK (S380) #9341, NEB Cell Signalling) and Akt was detected with the total antibody (Akt1 #sc-1618 C-20, Santa Cruz) and the phospho-antibody (Phospho-Akt (Ser 473) #9271, NEB Cell Signaling). After washing the membrane, secondary antibody incubation was carried out with anti-rabbit IR Dye 800 (#611-732-127, Rockland) for the phospho-antibody and anti-goat Alexa Fluor 680 (#A-21081, Molecular Probes) for the total protein-antibody. After incubating for 30 min at room temperature in the dark, the hybridisation of the detection antibody on the membrane was detected by scanning in the ODYSSEY imager (LiCOR).
(§9) The reduction of the fluorescence intensity of the phospho-substrate bands (pRsk and pAkt) is given in the table below as % inhibition and relates to the following formula:
(§10) The band intensity (fluorescence intensity) of the respective non-inhibited (without substance) phospho-substrates was used as 100% control.

Test [10] has as its system PI3K → pAkt. Kind of test: Cellular substrate phosphorylation (Western Blotting), PI3K substrate pAkt. Type of test: cell-based. The method, then: as §7, §8, §9, §10
Background: Immunoblotting shows a protein as a band on a membrane.

This note sets out measurements from US8937068B2, “Pyridopyrazine derivatives and their use” (Zentaris GmbH, priority 2005, dated 2015).

A value given as a limit tells only on which side of the number the result lay.

Erk2, sequence (P28482 2-360 limits assumed): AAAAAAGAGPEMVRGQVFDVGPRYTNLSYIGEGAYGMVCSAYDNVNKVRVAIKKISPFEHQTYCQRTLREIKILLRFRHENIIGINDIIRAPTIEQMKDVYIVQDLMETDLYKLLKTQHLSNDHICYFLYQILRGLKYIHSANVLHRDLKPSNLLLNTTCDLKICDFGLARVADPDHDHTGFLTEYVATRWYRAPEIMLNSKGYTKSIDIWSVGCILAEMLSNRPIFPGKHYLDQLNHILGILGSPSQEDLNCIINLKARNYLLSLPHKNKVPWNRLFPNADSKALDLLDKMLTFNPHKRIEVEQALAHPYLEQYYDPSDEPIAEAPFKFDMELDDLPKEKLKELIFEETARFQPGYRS
p38alpha, sequence (Q16539 whole entry): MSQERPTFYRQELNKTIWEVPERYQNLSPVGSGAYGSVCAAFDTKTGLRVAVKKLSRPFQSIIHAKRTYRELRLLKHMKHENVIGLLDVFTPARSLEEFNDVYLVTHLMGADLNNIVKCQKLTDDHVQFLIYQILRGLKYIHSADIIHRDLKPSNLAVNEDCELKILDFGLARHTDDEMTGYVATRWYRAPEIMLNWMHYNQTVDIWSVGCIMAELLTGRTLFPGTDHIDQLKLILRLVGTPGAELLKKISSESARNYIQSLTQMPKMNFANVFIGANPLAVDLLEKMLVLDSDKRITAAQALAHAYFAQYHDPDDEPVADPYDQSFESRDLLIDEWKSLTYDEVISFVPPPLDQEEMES

As usually defined, the IC50 is the concentration at which inhibition is half-maximal. Usually EC50 stands for the concentration needed to bring the measured effect to its halfway point. Read a low EC50 as higher potency in that assay. Turning to `CCNC(=O)Nc1ccc2ncc(-c3cc(Cl)c(O)c(OC)c3)nc2n1` [Compound 156, 1-[3-(3-Chloro-4-hydroxy-5-methoxy-phenyl)-pyrido[2,3-b]pyrazin-6-yl]-3-ethyl-urea], the IC50 in test [1] was 0.138 µM; in test [4], 0.425 µM; in [6], 2.1 µM; in test [7] it was greater than 100 µM. In addition, the EC50 turned out to be 1.4 µM in test [2], 15 µM in [3] and 8.9 µM in [5].
Usually inhibition stands for how much of the control response was suppressed. A high value points to strong suppression. For the molecule `O=c1cc(N2CCOCC2)oc2c(-c3ccccc3)cccc12` [Ly294002, reference compound], the “anti-proliferative effects on the cell lines used (in words)” value in [8] is given as “weak anti-proliferative effects”. Also, the inhibition at 50 µM in test [9] (50 μM, 5 h) turned out to be 0%; in test [10] (50 μM, 5 h), 40%. Besides, the “Erk inhibition / inhibition of the Erk substrate p-Rsk (in words)” value in [9] (Western Blotting) is listed as “no Erk inhibition”. Besides, the EC50 in test [2] turned out to be 17 µM; in test [3] it was 20 µM; in [5], 25 µM. Besides, the “PI3K inhibition / inhibition of the PI3K substrate p-Akt (in words)” value in [10] (Western Blotting) is “only weak PI3K inhibition”.
As to `CCNC(=O)Nc1ccc2ncc(-c3ccc(OC)c(OC)c3)nc2n1` [Compound 153, 1-[3-(3,4-Dimethoxy-phenyl)-pyrido[2,3-b]pyrazin-6-yl]-3-ethyl-urea], the IC50 was 0.939 µM in [1], 0.612 µM in test [4], 6.7 µM in [6] and greater than 100 µM in test [7]. The EC50 in [2] is 6 µM; in test [3], 24 µM; in test [5], greater than 25 µM.
Take `CCNC(=O)Nc1ccc2ncc(Nc3cccc(C)c3)nc2n1` [Compound 157, 1-Ethyl-3-(3-m-tolylamino-pyrido-[2,3-b]pyrazin-6-yl)-urea]: the IC50 is greater than 100 µM in [1], 0.348 µM in [4], 28.5 µM in [6] and greater than 100 µM in test [7]. The EC50 in test [2] is 4.4 µM; in test [3], 3.5 µM; in test [5], greater than 25 µM.
